We go through eight compounds from patent publication US5593970A, “Heterocyclic anthracycline analogs” (priority 1994, dated 1997).

One experiment concerns LS180. Nature of the experiment: Soft agar colony formation disk diffusion assay. It is filed as cell-based, human. In short, it runs like this: (§1)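 Two-layer agar; upper 0.4% Noble agar/RPMI-1066 with cells, lower 0.8% agar + 0.8% Tryptic Soy Broth. Drug on 6.5 mm filter disk; 37 °C, 5% CO2, 10–20 d. Inhibition zone (disk edge to closest colony) read at 40× with eyepiece micrometer.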

The next experiment relates to MCF7/ADR. The experiment is described as follows: Soft agar colony formation disk diffusion assay. It is filed as cell-based, human. In outline:
as §1

The subject of the next experiment is MCF7. Nature of the experiment: Soft agar colony formation disk diffusion assay. Format: cell-based, human. In short, it runs like this: as §1
The next experiment deals with B16. The experiment is described as follows: Soft agar colony formation disk diffusion assay. Format: cell-based, murine. The text has this:
(§2) A more elaborate version of this fundamental assay, the soft agar colony formation disk diffusion assay was used. This assay defines the relative activity of one particular drug versus a tumoral cell line type. The effect of the test drug against tumoral cells could be measured by its inhibitory capacity against colony formation after the delivery of the compound, in different concentrations on an filter disk(4). A modified technique of this assay was used in order to investigate the antiproliferative activity of candidate compounds. Tumoral cells from solid tumors and ascitic lines were plated separately in a two layer agar matrix. Cell lines to be tested were suspended in an upper layer of 0.4% Noble agar (Difco#00142-01) in RPMI-1066 (Gibco#3201875) at a yield varying between 10^4 to 2×10^5 cells per 60 mm Petri dish. Plating efficiency was determined for each line in order to achieve an optimal number of colonies per dish. Plates were examined before drug administration to confirm a uniform dispersion of single cells. The bottom layer consisted of 0.8% Noble agar, 0.8% Tryptic Soy Broth (difco#0037001)in CMRL-1066/Fischer's. The bottom layers were used within 2 and 9 days of preparation. Plated dishes (bottom layer of agar, upper layer of cells and administered drug were incubated in humidified atmosphere at 37° C., 5% CO2 for 10-20 days depending upon the time necessary to observe adequate colonies (defined as a cell aggregate of more than 50 cells) both control and drug inhibited. Drugs were administered on a paper filter disk (Whatman No. 1) of 6.5 mm diameter placed on the upper layer at 1/3 distance from the edge of the dish. The anti-clonogenic activity of the compounds was measured as the zone of inhibition from the disk edge to the most proximal colonies. This zone of inhibition was checked on an inverted microscope (40×) and was measured with a micrometer mounted in the eyepiece. The ocular micrometer was calibrated with a stage micrometer set for a particular combination of ocular and objective lenses. […] We made a modification of the initial technique by not plating a solid tumor and a leukemia simultaneously in the same Petri dish. Anti-clonogenic tests performed on leukemia cell line have helped in the discovery of the majority of current clinically used cytostatic drugs. Our tests on solid tumor lines (animal or human) may help define active compounds with solid tumor specificity. […] Murine tumors were maintained IN VIVO in order to diminish the selection of subpopulations of cells normally present in the heterogenous IN VIVO tumor. The actual drug sensitivity assay was done IN VITRO. For these experiments cells from freshly excised tumors or from ascitic fluids were maintained in RPMI-1066. Both compounds were dissolved in DMSO (1 mg/100 ul) and brought to final volume (250 ul) with Millipore deionized sterile water. Further dilutions were made with […] volume of 25 ul of freshly prepared solution was placed on the filter disk and allowed to dry.

In another experiment the test system is M5076. The experiment is described as follows: Soft agar colony formation disk diffusion assay. It is filed as cell-based, murine.
Source text: as §2

The test system of the next experiment is P388/ADR. Nature of the experiment: Soft agar colony formation disk diffusion assay. It is filed as cell-based, murine.
Source text: as §2

A further experiment has as its system P388. The experiment is described as follows: Soft agar colony formation disk diffusion assay. It is filed as cell-based, murine.
Source text: as §2

Another experiment relates to LOX. The experiment is described as follows: Microculture tetrazolium assay. Particulars: read-out: IC50. Format: cell-based.

pIC50: −log10 of the molar value.

As to “3-(2-acetoxy-1-propeneketal)aceto-6-acetoxy-1-hydroxy-1,2,3,4-tetrahydro-(2-oxygen)naphtacene-5,12-dione and 3-(2-acetoxy-1-propeneketal)-aceto-11-acetoxy-1-hydroxy-1,2,3,4-tetrahydro-(2-oxygen)naphtacene-5,12-dione [BCH-710]”, the zone of inhibition in the experiment with LS180 (10 μg/DISK) came out at 48.5 ± 26.1 Zone Units; in the experiment on LS180 (100 μg/DISK), 110.0 ± 50.2 Zone Units; in the experiment on MCF7/ADR (10 μg/DISK), 0 Zone Units; in the experiment with MCF7/ADR (100 μg/DISK) it was 106.0 ± 21.9 Zone Units; in the experiment on MCF7 (10 μg/DISK), 0 Zone Units; with MCF7 (100 μg/DISK), 24.0 ± 8.4 Zone Units. Also, the zone of inhibition in the experiment with B16 (10 μg/DISK) stood at 21.0 ± 2.1 Zone Units; in the experiment on B16 (100 μg/DISK), 21.0 ± 2.1 Zone Units; with M5076 (10 μg/DISK), 209.5 ± 21.9 Zone Units; in the experiment on M5076 (100 μg/DISK), 533.0 ± 20.0 Zone Units; in the experiment with P388/ADR (10 μg/DISK) it was 0 Zone Units; with P388/ADR (100 μg/DISK) it was 110.0 ± 0.0 Zone Units. The values for the zone of inhibition in the experiment with P388 (10 μg/DISK) and in the experiment with P388 (100 μg/DISK) were 13.0 ± 0.0 Zone Units and 326.5 ± 43.1 Zone Units, respectively. In addition, the pIC50 with LOX is 5.45.

Regarding “3-Carbomethoxy-1,11-dihydroxy-1,2,3,4-tetrahydro-(2-oxygen)naphthacene-5,12-dione 3-Carbomethoxy-1,6-dihydroxy-1,2,3,4-tetrahydro-(2-oxygen)naphthacene-5,12-dione [BCH-711]”, the zone of inhibition is 18.0 ± 16.9 Zone Units in the experiment on LS180 (10 μg/DISK); 182.5 ± 43.1 Zone Units with LS180 (100 μg/DISK); 24.4 ± 8.5 Zone Units in the experiment on MCF7/ADR (10 μg/DISK); 222.4 ± 159.2 Zone Units in the experiment with MCF7/ADR (100 μg/DISK); 0 Zone Units in the experiment with MCF7 (10 μg/DISK); 244.0 ± 17.2 Zone Units in the experiment on MCF7 (100 μg/DISK). Further, the zone of inhibition was found to be 27.0 ± 4.2 Zone Units in the experiment on B16 (10 μg/DISK); 137.0 ± 21.2 Zone Units in the experiment on B16 (100 μg/DISK); 55.0 ± 8.4 Zone Units in the experiment on M5076 (10 μg/DISK); 198.0 ± 21.2 Zone Units with M5076 (100 μg/DISK); 40.0 ± 20.0 Zone Units in the experiment with P388/ADR (10 μg/DISK); 150.0 ± 30.0 Zone Units in the experiment with P388/ADR (100 μg/DISK). Besides, the values for the zone of inhibition in the experiment with P388 (10 μg/DISK) and with P388 (100 μg/DISK) were 45.5 ± 21.9 Zone Units and 183.0 ± 0.0 Zone Units, respectively. The pIC50 in the experiment on LOX was 4.94.

As to `CCOC(=O)[C@@H]1CC2=C(C(=O)c3cc4ccccc4c(O)c3C2=O)[C@@H](O[C@H]2C[C@H](NC(=O)C(F)(F)F)[C@H](O)[C@H](C)O2)O1` [BCH-681, (1'S,1R,3S)Ethyl[6-hydroxy-5,12-dioxo-1-(3'-trifuloroacetamido-1-daunosaminyl)-3,4,5,12-tetrahydroanthraceno(2,3-C)pyran-3-yl]formate], the zone of inhibition was found to be 82.7 ± 30.1 Zone Units in the experiment on MCF7/ADR (10 μg/DISK) and 326.3 ± 56.0 Zone Units in the experiment with MCF7/ADR (100 μg/DISK). Moreover, in the experiment on LOX, the pIC50 is 5.31.

For `CCOC(=O)[C@H]1CC2=C(C(=O)c3cc4ccccc4c(O)c3C2=O)[C@H](O[C@H]2C[C@H](NC(=O)C(F)(F)F)[C@H](O)[C@H](C)O2)O1` [BCH-684, (1'S,1S,3R)Ethyl[6-hydroxy-5,12-dioxo-1-(3'-trifluoroacetamido-1-daunosaminyl)-3,4,5,12-tetrahydroanthraceno(2,3-C)pyran-3-yl]formate], the “cross resistance with adriamycin, MCF7/ADR vs MCF7” value in the experiment on MCF7/ADR is reported as “more active in the adriamycin resistant cell line”. Also, the zone of inhibition amounted to 161.6 ± 30.1 Zone Units in the experiment on MCF7/ADR (10 μg/DISK), 437.1 ± 30.1 Zone Units in the experiment on MCF7/ADR (100 μg/DISK), 115.9 ± 8.6 Zone Units in the experiment with MCF7 (10 μg/DISK) and 225.7 ± 25.8 Zone Units in the experiment with MCF7 (100 μg/DISK).

Take `CC(=O)Oc1c2c(c(O)c3ccccc13)C(=O)C1=C(C2=O)C(O)OC(C(C)=O)C1` (stereo not drawn) [BCH-704, Methyl(11-acetoxy-1,6-dihydroxy-5,12-dioxo-3,4,5,12-tetrahydroanthraceno[2,3-c]pyran-3-yl)ketone]: the zone of inhibition with LS180 (10 μg/DISK) worked out at 38.3 ± 2.4 Zone Units; with LS180 (100 μg/DISK) it was 131.1 ± 31.1 Zone Units; in the experiment on MCF7/ADR (10 μg/DISK), 122.0 ± 25.8 Zone Units; with MCF7/ADR (100 μg/DISK), 323.0 ± 16.8 Zone Units; in the experiment on MCF7 (10 μg/DISK), 183.0 ± 10.8 Zone Units; in the experiment with MCF7 (100 μg/DISK), 320.5 ± 21.5 Zone Units. For the same compound, the negative logarithm of the IC50 (pIC50) in the experiment on LOX was 4.55.

Regarding `C=CC1CC2=C(C(=O)c3cc4ccccc4c(O)c3C2=O)C(OC)O1` (stereo not drawn) [BCH-712, 6-hydroxy-1-methoxy-1,2,3,4-tetrahydro-3-vinyl-(2-oxygen) naphthacene-5,12-dione], the zone of inhibition with LS180 (10 μg/DISK) is on record as 9.0 ± 4.2 Zone Units; in the experiment on LS180 (100 μg/DISK) it was 158.0 ± 34.6 Zone Units; with MCF7/ADR (10 μg/DISK), 24.0 ± 8.4 Zone Units; with MCF7/ADR (100 μg/DISK), 79.0 ± 8.4 Zone Units; in the experiment on MCF7 (10 μg/DISK), 0 Zone Units; in the experiment on MCF7 (100 μg/DISK), 54.5 ± 9.1 Zone Units. The zone of inhibition was found to be 0 Zone Units in the experiment on B16 (10 μg/DISK); 27.0 ± 4.2 Zone Units in the experiment on B16 (100 μg/DISK); 0 Zone Units in the experiment on M5076 (10 μg/DISK); 158.0 ± 34.6 Zone Units in the experiment with M5076 (100 μg/DISK); 0 Zone Units in the experiment with P388/ADR (10 μg/DISK); 42.5 ± 9.1 Zone Units with P388/ADR (100 μg/DISK). Besides, the zone of inhibition is listed as 6.1 ± 0.0 Zone Units with P388 (10 μg/DISK) and 70.0 ± 21.2 Zone Units with P388 (100 μg/DISK). The “cross resistance with adriamycin, MCF7/ADR vs MCF7” value with MCF7/ADR is “more active in the adriamycin resistant cell line”.

For the compound `CCOC(=O)C1Cc2c(c(OC)c3c(c2OC)C(=O)c2ccccc2C3=O)CS1` (stereo not drawn) [BCH-717], the zone of inhibition in the experiment on LS180 (10 μg/DISK) stood at 0 Zone Units; in the experiment on LS180 (100 μg/DISK) it was 61.0 ± 0.0 Zone Units; with MCF7/ADR (10 μg/DISK), 0 Zone Units; in the experiment on MCF7/ADR (100 μg/DISK), 0 Zone Units; in the experiment with MCF7 (10 μg/DISK), 0 Zone Units; with MCF7 (100 μg/DISK) it was 0 Zone Units. The zone of inhibition turned out to be 0 Zone Units with B16 (10 μg/DISK); 106.0 ± 64.3 Zone Units with B16 (100 μg/DISK); 18.3 Zone Units with M5076 (10 μg/DISK); 39.5 ± 30.4 Zone Units with M5076 (100 μg/DISK); 0 Zone Units in the experiment with P388/ADR (10 μg/DISK); 0 Zone Units in the experiment with P388/ADR (100 μg/DISK). Besides, the zone of inhibition in the experiment on P388 (10 μg/DISK) is 0 Zone Units; with P388 (100 μg/DISK) it was 122.0 ± 0.0 Zone Units. Moreover, in the experiment with LOX, the pIC50 is below 4.00.

As to `CC(=O)Oc1c2c(c(O)c3ccccc13)C(=O)C1=C(CC(C(C)=O)OC1)C2=O` (stereo not drawn) [BCH-721], the zone of inhibition in the experiment on LS180 (10 μg/DISK) came to 18.9 Zone Units; in the experiment with LS180 (100 μg/DISK) it was 122.0 ± 0.0 Zone Units; in the experiment with MCF7/ADR (10 μg/DISK), 91.0 ± 86.2 Zone Units; in the experiment with MCF7/ADR (100 μg/DISK), 183.0 ± 86.2 Zone Units; with MCF7 (10 μg/DISK) it was 55.0 ± 8.4 Zone Units; in the experiment with MCF7 (100 μg/DISK), 167.0 ± 21.9 Zone Units. Further, the zone of inhibition worked out at 76.0 ± 21.2 Zone Units in the experiment on B16 (10 μg/DISK); 198.0 ± 21.2 Zone Units in the experiment with B16 (100 μg/DISK); 78.0 ± 18.3 Zone Units in the experiment on M5076 (10 μg/DISK); 259.0 ± 21.2 Zone Units in the experiment on M5076 (100 μg/DISK); 21.0 ± 21.2 Zone Units in the experiment with P388/ADR (10 μg/DISK); 183.0 ± 86.2 Zone Units in the experiment with P388/ADR (100 μg/DISK). Besides, the values for the zone of inhibition with P388 (10 μg/DISK) and in the experiment on P388 (100 μg/DISK) were 45.5 ± 21.9 Zone Units and 137.0 ± 21.2 Zone Units, respectively. The negative-log IC50 (pIC50) in the experiment with LOX is 4.60.
